Laboratory results from patent US20160009752A1, “[…]-OXIMINO-AMINOALKYLETHERS AND PROCESS FOR PREPARATION THEREOF, USEFUL AS ANTIDIABETIC AND […] AGENTS” (COUNCIL OF SCIENTIFIC & INDUSTRIAL RESEARCH, priority 2013, published 2016).
Marks after values point to notes of the source that are not given here.

How the values were obtained:
[1] = system: sucrose loaded rat; test: Sucrose loaded rat model (SLM), oral tolerance test; type: in vivo; parameters: % Antihyperglycemic activity SLM: concentration or dose not given beside the values; details: for % Antihyperglycemic activity SLM: Table 2, sucrose loaded rat
From the text: On the day of experiment blood glucose of all the overnight fasted animals was checked by Glucostrips (Roche) using Glucometer (ACCU-CHEK II; Roche Diagnostics, USA). […] Animals were divided into groups consisting of five animals in each. […] The test compounds and standard drug was always prepared in the vehicle 1% gum acacia. […] Food (not water) was removed from the cages during the experimental period. […] Comparing the AUC of test sample or drug treated groups compared to control group determined the percent improvement in OGTT by test sample and standard drugs and termed as antihyperglycaemic activity. Statistical analysis between the groups was done by employing Students t test

[2] = system: sucrose challenged low dosed STZ-induced diabetic rats; test: Sucrose challenged low dosed streptozotocin-induced diabetic rats (STZ-S); type: in vivo, rat; details: for % Antihyperglycemic activity STZ-S 0-5 hr / % Antihyperglycemic activity STZ-S 0-24 hr: Table 2
Experimental: Fasting blood glucose level of each animal was measured after 48 hours post STZ injection by Glucostrips (Roche) using Glucometer (ACCU-CHEK II; Roche Diagnostics, USA) and animals showing blood glucose level above 280 mg/dl were considered as diabetic. The diabetic rats with fasting blood glucose values varying between […] were included in this study. Animals were divided into groups consisting of five animals in each. Group one was considered as a control group, where as the other groups were termed as experimental groups. […] The test samples and standard drug (Metformin) was always prepared in the vehicle 1% gum acacia. […] Food (not water) was removed from the cages during the experimental period. […] The percent decline in AUC of the experiment group compared to sham treated control group termed as % antihyperglycaemic activity. Statistical analysis between the groups was done by employing Students t test.

[3] = system: high fructose high fat fed Syrian golden hamsters; test: Antidyslipidemic activity in high fructose high fat fed Syrian golden hamsters; type: in vivo
Experimental: Male Syrian golden hamsters weighing 100-120 g were divided into groups each containing six animals. Dyslipidemia was produced by feeding the animals with high fructose high fat diet (60% fructose, 13% fat) for 30 to 40 days. Dyslipidemic hamsters were divided into groups based on their Serum lipid profile. The dyslipidemic animals had free access to HFD and water throughout the experimental period. The fine suspension of 14b was fed orally at a dose of 30 mg/kg for 7 days to the animals. Control animals were given drug vehicle only, served as sham treated control. Body weight and diet intake of each animal group were recorded daily to check the effect of the test samples on food intake and body weight of the animals. At the end of the experiment period i.e. on day 8th, the blood of each animal was withdrawn from retro-orbital plexus. After keeping the tubes for 15 min. in cold, Serum was separated. Biochemical analysis of Serum was performed on the same day for triglycerides (TG), total cholesterol (TC) and HDL-cholesterol and LDL-cholesterol contents using Cobas Integra 400 plus analyzer kits. All statistical analysis will be performed with Graph Pad Prism Software. One way ANOVA, all pair wise multiple comparison procedure (Tukey test). Data will be reported as mean±SEM.

[4] = system: STZ-induced diabetic rats; test: Streptozotocin-induced diabetic rat model (STZ); type: in vivo; details: 100 mg/kg
Experimental: Male albino rats (Sprague Dawley Strain) of body weight 160±20 g were procured from the colony of CDRI Animal House. 4 to 5 animals were kept in one polypropylene cage and acclimatized for one week in the new environment. The animals were made diabetic by injecting streptozotocin (STZ) intraperitoneally to the overnight starved animals at a dose of 60 mg/kg prepared in 100 mM citrate buffer (pH 4.5). Fasting blood glucose level of each animal was measured after 48 hours post STZ injection by Glucostrips (Roche) using Glucometer (ACCU-CHEK II; Roche Diagnostics, USA) and animals showing blood glucose level above 280 mg/dl were considered as diabetic. The diabetic rats with fasting blood glucose values varying between 280-450 mg/dl were included in this study. Animals were divided into groups consisting of five animals in each. Group one was considered as a control group, where as the other groups were termed as experimental groups. Rats of experimental group were usually given 100 mg/kg body weight of the test samples unless stated otherwise and standard drug i.e. metformin, respectively. The test samples and standard drug i.e. metformin was always prepared in the vehicle 1% gum acacia. 30 min post administration of the test samples/vehicle/standard drug, blood glucose levels of the animals of all the groups were measured at 30, 60, 90, 120, 180, 240, 300 and 1440 min. Food (not water) was removed from the cages during the experimental period. A plot was drawn between time and blood glucose levels on x and y axis, respectively and the area under curve (AUC) between 0 to 300 min were calculated of each group. The percent decline in AUC of the experiment group compared to sham treated control group termed as % antihyperglycaemic activity. Statistical comparison between the groups was done by employing Student's ‘t’ test.

CC(=NO)[C@H]1CC[C@H]2[C@@H]3CC=C4C[C@@H](O)CC[C@]4(C)[C@H]3CC[C@]12C [Compound 10., 3β-hydroxy-pregna-5-en-20-one-oxime]
% Antihyperglycemic activity SLM [1]: 13.9%

C/C(=N\OCCN1CCCCC1)C1=CC[C@H]2[C@@H]3CC=C4C[C@@H](O)CC[C@]4(C)[C@H]3CC[C@]12C [Compound 11a, 3β-Hydroxy-pregna-5,16-dien-20-one-O-(2-piperidinyl-ethyl)-oxime]
% Antihyperglycemic activity SLM [1]: 27.15% | melting point: 135 to 138 °C

C/C(=N\OCCN1CCCCCC1)C1=CC[C@H]2[C@@H]3CC=C4C[C@@H](O)CC[C@]4(C)[C@H]3CC[C@]12C [Compound 11b, 3β-Hydroxypregna-5,16-dien-20-one-O-(2-azepan-1-yl-ethyl)-oxime]
% Antihyperglycemic activity SLM [1]: 16.5% | melting point: 127 to 130 °C

C/C(=N\OCCN1CCOCC1)C1=CC[C@H]2[C@@H]3CC=C4C[C@@H](O)CC[C@]4(C)[C@H]3CC[C@]12C [Compound 11c, 3β-Hydroxypregna-5,16-dien-20-one-O-(2-morpholin-4-yl-ethyl)-oxime]
% Antihyperglycemic activity SLM [1]: 10.2%

CCN(CC)CCO/N=C(\C)C1=CC[C@H]2[C@@H]3CC=C4C[C@@H](O)CC[C@]4(C)[C@H]3CC[C@]12C [Compound 11d, 3β-Hydroxypregna-5,16-dien-20-one-O-(2-diethylamino-ethyl)-oxime]
% Antihyperglycemic activity SLM [1]: 13.1% | melting point: 156 to 160 °C

C/C(=N\OCCN1CCCC1)[C@H]1CC[C@H]2[C@@H]3CC=C4C[C@@H](O)CC[C@]4(C)[C@H]3CC[C@]12C [Compound 14a, 3β-Hydroxy-pregna-5-en-20-one-O-(2-pyrrolidin-1-yl-ethyl)-oxime]
% Antihyperglycemic activity SLM [1]: 42.4% | anti-diabetic activity, in words ([1]; all the models including db/+ mice models): better anti-diabetic activity | % Antihyperglycemic activity STZ-S 0-5 hr [2]: 9.96% | % Antihyperglycemic activity STZ-S 0-24 hr [2]: 3.07% | melting point: 140 to 142 °C

C/C(=N\OCC(O)CNC(C)(C)C)[C@H]1CC[C@H]2[C@@H]3CC=C4C[C@@H](O)CC[C@]4(C)[C@H]3CC[C@]12C (stereo partly drawn) [Compound 16a, 3β-Hydroxy-pregna-5-en-20-one-O-[2-hydroxy-3-tert.-butylamino-propyl]-oxime]
% Antihyperglycemic activity SLM [1]: 37.7% | melting point: > 200 °C

C/C(=N\OCC(O)CNC(C)C)C1CCC2C3CC=C4CC(O)CCC4(C)C3CCC12C (stereo not drawn) [Compound 16b, 3β-Hydroxy-pregna-5-en-20-one-O-[2-hydroxy-3-iso-propylamino-Propyl)-oxime]
% Antihyperglycemic activity SLM [1]: 13.6%

C/C(=N/OCC(O)CN1CCN(c2ccccc2)CC1)[C@H]1CC[C@H]2[C@@H]3CC=C4C[C@@H](O)CC[C@]4(C)[C@H]3CC[C@]12C (stereo partly drawn) [Compound 16c, 3β-Hydroxy-pregna-5-en-20-one-O-[2-hydroxy-3-(4-phenyl-piperazin-1-yl)-propyl]-oxime]
% Antihyperglycemic activity SLM [1]: 17.8%

COc1ccccc1N1CCN(CC(O)CO/N=C(/C)C2CCC3C4CC=C5CC(O)CCC5(C)C4CCC23C)CC1 (stereo not drawn) [Compound 16d, 3β-Hydroxy-pregna-5-en-20-one-O-{2-hydroxy-3-[4-(2-methoxyphenyl)-Piperzin-1-yl]-propyl}-oxime]
% Antihyperglycemic activity SLM [1]: 13.9% | melting point: 145 to 149 °C

CC(C)OC(=O)C(C)(C)Oc1ccc(C(=O)c2ccc(Cl)cc2)cc1 [Fenofibrate, reference compound]
enhancement of lipoprotein lipase ([3]; 30 mg/kg oral): 21.1% | enhancement of serum HDL-cholesterol ([3]; 30 mg/kg oral): 9.8% | lowering of LDL-cholesterol (LDL-C) level ([3]; 30 mg/kg oral): 30.1% | lowering of serum glycerol level ([3]; 30 mg/kg oral): 22.4% | lowering of serum triglycerides level (TG) ([3]; 30 mg/kg oral): 28.9% | Glycerol, change vs HFD control (in parentheses) ([3]; 30 mg/kg p.o., 7 days): (−22.4)* % | HDL-C, change vs HFD control (in parentheses) ([3]; 30 mg/kg p.o., 7 days): (+9.80) % | LDL-C, change vs HFD control (in parentheses) ([3]; 30 mg/kg p.o., 7 days): (−30.1)** % | Lipoprotein lipase, change vs HFD control (in parentheses) ([3]; 30 mg/kg p.o., 7 days): (+21.1)* % | TG, change vs HFD control (in parentheses) ([3]; 30 mg/kg p.o., 7 days): (−28.9)* % | Chol ([3]; 30 mg/kg p.o., 7 days, serum): 277.8 ± 22.3 mg/dL | HDL-C ([3]; 30 mg/kg p.o., 7 days, serum): 156.8 ± 12.8 mg/dL | Lipoprotein lipase ([3]; 30 mg/kg p.o., 7 days, serum): 36.8 ± 3.60 U/L | NEFA ([3]; 30 mg/kg p.o., 7 days, serum): 5.40 ± 0.30 mmol/L | TG ([3]; 30 mg/kg p.o., 7 days, serum): 529.8 ± 30.7 mg/dL

CN(C)C(=N)N=C(N)N [Metformin, reference compound]
Blood glucose profile, 0 min post glucose load ([1]; 100 mg/kg): 94.8 ± 2.1 mg/dL | Blood glucose profile, 30 min post glucose load ([1]; 100 mg/kg): 111.4 ± 7.8 mg/dL | Blood glucose profile, 60 min post glucose load ([1]; 100 mg/kg): 105.8 ± 2.1 mg/dL | Blood glucose profile, 90 min post glucose load ([1]; 100 mg/kg): 94.0 ± 2.0 mg/dL | Blood glucose profile, 120 min post glucose load ([1]; 100 mg/kg): 84.2 ± 1.3 mg/dL | % Antihyperglycaemic activity (improvement in OGTT post sucrose load) ([1]; 100 mg/kg, AUC 0-120 min vs control, normal rats): 24.4*** % | % Antihyperglycemic activity SLM [1]: 21.1% | % Antihyperglycemic activity 0-300 min ([2]; 100 mg/kg): 23.7%** | % Antihyperglycemic activity 0-1440 min ([2]; 100 mg/kg): 23.1%** | Blood glucose level, 0 min post sucrose load ([2]; 100 mg/kg): 222.2 ± 19.9 mg/dL | Blood glucose level, 30 min post sucrose load ([2]; 100 mg/kg): 457.4 ± 17.2 mg/dL | Blood glucose level, 60 min post sucrose load ([2]; 100 mg/kg): 524.2 ± 18.9 mg/dL | Blood glucose level, 90 min post sucrose load ([2]; 100 mg/kg): 468.2 ± 11.3 mg/dL | Blood glucose level, 120 min post sucrose load ([2]; 100 mg/kg): 416.0 ± 12.2 mg/dL | Blood glucose level, 180 min post sucrose load ([2]; 100 mg/kg): 373.6 ± 11.4 mg/dL | Blood glucose level, 240 min post sucrose load ([2]; 100 mg/kg): 345.0 ± 10.6 mg/dL | Blood glucose level, 300 min post sucrose load ([2]; 100 mg/kg): 310.8 ± 2.6 mg/dL | Blood glucose level, 1440 min post sucrose load ([2]; 100 mg/kg): 392.8 ± 9.9 mg/dL | % Antihyperglycemic activity 0-300 min ([2]; 100 mg/kg, listed as metformin): 23.7% | % Antihyperglycemic activity 0-1440 min ([2]; 100 mg/kg, listed as metformin): 23.1% | % Antihyperglycemic activity STZ-S 0-5 hr [2]: 25.8% | % Antihyperglycemic activity STZ-S 0-24 hr [2]: 33.2% | Blood glucose level, 0 min post sucrose load [4]: 358.4 ± 14.5 mg/dL | Blood glucose level, 30 min post sucrose load [4]: 450.0 ± 21.8 mg/dL | Blood glucose level, 60 min post sucrose load [4]: 419.0 ± 10.5 mg/dL | Blood glucose level, 90 min post sucrose load [4]: 399.0 ± 7.7 mg/dL | Blood glucose level, 120 min post sucrose load [4]: 351.0 ± 16.0 mg/dL | Blood glucose level, 180 min post sucrose load [4]: 349.6 ± 10.1 mg/dL | Blood glucose level, 240 min post sucrose load [4]: 337.0 ± 7.7 mg/dL | Blood glucose level, 300 min post sucrose load [4]: 299.8 ± 5.0 mg/dL | Blood glucose level, 1440 min post sucrose load [4]: 445.6 ± 13.9 mg/dL
